Broadly, the mortality is the percentage killed.

Four compounds from patent publication US20110118116A1, “Azolin-2-ylamino Compounds for Combating Animal Pests” (priority 2008, published 2011) can be followed below.

Assay type in all cases: in vivo
Assay [1] concerns Green Peach Aphid (Myzus persicae). Nature of the assay: Green peach aphid test, leaves of infested pepper plants dipped. The settings on record: 120 h, dip, aphid mortality determined after 5 days, read-out: mortality in comparison with untreated controls. On the procedure: II. Green Peach Aphid (Myzus persicae)
(§1) The active compounds were formulated in 50:50 acetone: water and 100 ppm Kinetic® surfactant.
Pepper plants in the 2nd leaf-pair stage (variety ‘California Wonder’) are infested with approximately 40 laboratory-reared aphids by placing infested leaf sections on top of the test plants. The leaf sections are removed after 24 hours. The leaves of the intact plants are dipped into gradient solutions of the test compound. Aphid mortality on the treated plants, relative to mortality on check plants, is determined after 5 days.

Assay [2] deals with Cotton Aphid (Aphis gossypii). Put plainly: Cotton aphid test, cotyledons of infested cotton plants dipped. The following applies: 120 h, dip, aphid mortality determined after 5 days, read-out: mortality in comparison with untreated controls. On the procedure:
I. Cotton Aphid (Aphis gossypii)
as §1
Cotton plants in the cotyledon stage (variety ‘Delta Pine’) are infested with approximately 100 laboratory-reared aphids by placing infested leaf sections on top of the test plants. The leaf sections are removed after 24 hours. The cotyledons of the intact plants are dipped into gradient solutions of the test compound. Aphid mortality on the treated plants, relative to mortality on check plants, is determined after 5 days.

Assay [3] relates to Cowpea Aphid (Aphis craccivora). Put plainly: Cowpea aphid test, colonized potted cowpea plants sprayed. The following applies: spray, population reduction recorded after 24, 72 and 120 hours, read-out: mortality in comparison with untreated controls. On the procedure:
III. Cowpea Aphid (Aphis craccivora)
as §1
Potted cowpea plants colonized with 100-150 aphids of various stages were sprayed after the pest population has been recorded. Population reduction was recorded after 24, 72, and 120 hours.

The test system of a further assay is Silverleaf Whitefly. Put plainly: Silverleaf whitefly test, cotton cotyledons dipped, adults introduced. The settings on record: Bemisia argentifolii, 72 h, cotton plants, dip, mortality assessed 3 days after treatment, read-out: mortality in comparison with untreated controls. On the procedure: as §1
Selected cotton plants were grown to the cotyledon state (one plant per pot). The cotyledons were dipped into the test solution to provide complete coverage of the foliage and placed in a well-vented area to dry. Each pot with treated seedling was placed in a plastic cup and 10 to 12 whitefly adults (approximately 3-5 day old) were introduced. The insects were colleted using an aspirator and a 0.6 cm, non-toxic Tygon® tubing (R-3603) connected to a barrier pipette tip. The tip, containing the collected insects, was then gently inserted into the soil containing the treated plant, allowing insects to crawl out of the tip to reach the foliage for feeding. The cups were covered with a re-usable screened lid (150 micron mesh polyester screen PeCap from Tetko Inc). Test plants were maintained in the holding room at about 25 °C and 20-40% relative humidity for 3 days avoiding direct exposure to the fluorescent light (24 hour photoperiod) to prevent trapping of heat inside the cup. Mortality was assessed 3 days after treatment of the plants.

The structures appear in SMILES notation.

Regarding `Cc1cccc(C(CC#Cc2cccc(Cl)c2)NC2=NCCS2)c1C` (stereo not drawn) [Example 15, [4-(3-chloro-phenyl)-1-(2,3-dimethyl-phenyl)-but-3-ynyl]-(4,5-dihydro-thiazol-2-yl)-amine], the mortality at 300 ppm in assay [1], in assay [2] and in assay [3] was over 70% throughout.
With `C#CCC(NC1=NCCS1)c1cccc(C)c1C` (stereo not drawn) [Example 14, (4,5-dihydro-thiazol-2-yl)-[1-(2,3-dimethyl-phenyl)-but-3-ynyl]-amine], the mortality at 300 ppm in assay [3] was over 70%.
As to `Cc1cccc(C#CCC(NC2=NCCS2)c2cccc(C)c2C)c1` (stereo not drawn) [Example 13, (4,5-dihydro-thiazol-2-yl)-[1-(2,3-dimethyl-phenyl)-4-m-tolyl-but-3-ynyl]-amine], the mortality at 300 ppm (in assay [1]; in assay [2]; in assay [3]; with Silverleaf Whitefly) was over 70% throughout.
With `Cc1cccc(C#CCC(NC(=S)NCCO)c2cccc(C)c2C)c1` (stereo not drawn) [Example 2, 1-[1-(2,3-dimethyl-phenyl)-4-m-tolyl-but-3-ynyl]-3-(2-hydroxy-ethyl)-thiourea], the mortality at 300 ppm in assay [3] is over 70%.
